Legend:
Conditions in all cases: Compound Concentration 10.0 uM, Hit No
[1] = biological target: G/T mismatch-specific thymine DNA glycosylase (Homo sapiens) (UniProt Q13569);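 further: human TDG cleavage of quenched duplex DNA oligonucleotides coupled to APE1, strand release read as fluorescence at 594 nm, inhibition of TDG activity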
Description: Inhibition of TDG by quantifying inhibition of TDG-mediated cleavage and dissociation of quenched duplex DNA oligonucleotides, measured as fluorescence at 594 nm. To generate a functional strand incision and increase turn-over this assay is coupled to APE1.

[2] = biological target: DNA-3-methyladenine glycosylase (Homo sapiens) (UniProt P29372);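 further: enzyme assay where MPG cuts a quenched duplex DNA oligonucleotide probe, paired with APE1 for strand incision and turnover, read as fluorescence at 594 nm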
Description: Inhibition of MPG by quantifying inhibition of MPG-mediated cleavage and dissociation of quenched duplex DNA oligonucleotides, measured as fluorescence at 594 nm. To generate a functional strand incision and increase turn-over this assay is coupled to APE1.

[3] = biological target: Endonuclease 8-like 1 (Homo sapiens) (UniProt Q96FI4);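 further: fluorescence at 594 nm from quenched duplex DNA oligonucleotides released by NEIL1 cleavage and strand separation, reported as reduction of this enzyme activity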
Description: Inhibition of NEIL1 by quantifying inhibition of NEIL1-mediated cleavage and dissociation of quenched duplex DNA oligonucleotides, measured as fluorescence at 594 nm.

[4] = biological target: T1, Endonuclease 8-like 2 (Homo sapiens) (UniProt Q969S2);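 further: fluorescence at 594 nm reports NEIL2 cutting and release of a quenched double-stranded DNA oligo substrate, reduced signal read as inhibition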
T1 sequence (whole entry): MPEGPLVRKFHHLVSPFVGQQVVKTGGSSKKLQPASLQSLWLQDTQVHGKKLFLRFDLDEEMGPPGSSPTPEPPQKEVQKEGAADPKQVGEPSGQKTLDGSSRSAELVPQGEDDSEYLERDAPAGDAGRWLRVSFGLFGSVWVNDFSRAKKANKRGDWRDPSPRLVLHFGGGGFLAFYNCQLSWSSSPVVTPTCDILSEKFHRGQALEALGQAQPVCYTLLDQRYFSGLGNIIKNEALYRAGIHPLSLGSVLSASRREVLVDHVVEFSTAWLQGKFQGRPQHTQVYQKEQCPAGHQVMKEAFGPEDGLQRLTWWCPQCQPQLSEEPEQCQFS
Description: Inhibition of NEIL2 by quantifying inhibition of NEIL2-mediated cleavage and dissociation of quenched duplex DNA oligonucleotides, measured as fluorescence at 594 nm.

[5] = biological target: T2, Endonuclease III-like protein 1 (Homo sapiens) (UniProt P78549);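 further: enzyme assay tracking NTHL1 cutting and release of a quenched double-stranded DNA oligo substrate, read as fluorescence at 594 nm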
T2 sequence (whole entry): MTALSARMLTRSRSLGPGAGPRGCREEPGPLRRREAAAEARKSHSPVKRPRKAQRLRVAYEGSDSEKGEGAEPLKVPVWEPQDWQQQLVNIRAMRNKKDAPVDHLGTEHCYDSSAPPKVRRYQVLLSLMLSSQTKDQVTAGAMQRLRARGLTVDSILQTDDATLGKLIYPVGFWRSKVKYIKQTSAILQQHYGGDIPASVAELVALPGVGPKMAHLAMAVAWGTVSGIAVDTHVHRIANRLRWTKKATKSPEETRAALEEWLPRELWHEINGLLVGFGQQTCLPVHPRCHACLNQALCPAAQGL
Description: Inhibition of NTHL1 by quantifying inhibition of NTHL1-mediated cleavage and dissociation of quenched duplex DNA oligonucleotides, measured as fluorescence at 594 nm.

[6] = biological target: Uracil-DNA glycosylase (Homo sapiens) (UniProt P13051);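 further: UNG excision on a quenched double-stranded DNA oligo probe, with APE1 added for strand incision and turnover, read as fluorescence at 594 nm as strands separate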
Description: Inhibition of UNG by quantifying inhibition of UNG-mediated cleavage and dissociation of quenched duplex DNA oligonucleotides, measured as fluorescence at 594 nm. To generate a functional strand incision and increase turn-over this assay is coupled to APE1.

[7] = biological target: Methyl-CpG-binding domain protein 4 (Homo sapiens) (UniProt O95243);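 further: MBD4 activity read as fluorescence at 594 nm from cleavage and release of a quenched duplex DNA oligonucleotide, with APE1 coupled to incise the strand and raise turnover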
Description: Inhibition of MBD4 by quantifying inhibition of MBD4-mediated cleavage and dissociation of quenched duplex DNA oligonucleotides, measured as fluorescence at 594 nm. To generate a functional strand incision and increase turn-over this assay is coupled to APE1.

[8] = biological target: T3, Single-strand selective monofunctional uracil DNA glycosylase (Homo sapiens) (UniProt Q53HV7);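 further: enzymatic SMUG1 assay coupled with APE1, reading fluorescence at 594 nm released when a quenched double-stranded DNA oligonucleotide substrate is cleaved and separated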
T3 sequence (whole entry): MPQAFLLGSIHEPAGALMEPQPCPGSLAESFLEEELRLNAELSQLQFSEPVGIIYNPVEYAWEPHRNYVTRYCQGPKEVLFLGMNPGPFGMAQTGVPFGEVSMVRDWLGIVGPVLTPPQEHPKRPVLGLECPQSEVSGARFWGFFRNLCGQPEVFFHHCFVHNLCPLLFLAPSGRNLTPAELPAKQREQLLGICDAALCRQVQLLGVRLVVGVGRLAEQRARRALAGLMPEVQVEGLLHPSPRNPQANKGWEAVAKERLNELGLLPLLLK
Description: Inhibition of SMUG1 by quantifying inhibition of SMUG1-mediated cleavage and dissociation of quenched duplex DNA oligonucleotides, measured as fluorescence at 594 nm. To generate a functional strand incision and increase turn-over this assay is coupled to APE1.

[9] = biological target: N-glycosylase/DNA lyase (Homo sapiens) (UniProt O15527);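 further: OGG1 cleavage of a quenched duplex DNA oligonucleotide, coupled to APE1 for strand incision, read as fluorescence at 594 nm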
N-glycosylase/DNA lyase (Homo sapiens), sequence (O15527 whole entry): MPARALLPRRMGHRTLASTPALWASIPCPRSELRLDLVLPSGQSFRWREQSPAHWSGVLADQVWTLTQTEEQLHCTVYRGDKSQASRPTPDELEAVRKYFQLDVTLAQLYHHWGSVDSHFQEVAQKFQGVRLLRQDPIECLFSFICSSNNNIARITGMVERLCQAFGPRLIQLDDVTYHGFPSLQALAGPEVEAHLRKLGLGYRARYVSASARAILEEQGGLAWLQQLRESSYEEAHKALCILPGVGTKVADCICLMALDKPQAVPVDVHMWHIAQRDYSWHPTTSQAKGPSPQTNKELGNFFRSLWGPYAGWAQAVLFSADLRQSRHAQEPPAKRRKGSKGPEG
Description: Inhibition of OGG1 by quantifying inhibition of OGG1-mediated cleavage and dissociation of quenched duplex DNA oligonucleotides, measured as fluorescence at 594 nm. To generate a functional strand incision and increase turn-over this assay is coupled to APE1.

DNA-3-methyladenine glycosylase (Homo sapiens), sequence (P29372 whole entry): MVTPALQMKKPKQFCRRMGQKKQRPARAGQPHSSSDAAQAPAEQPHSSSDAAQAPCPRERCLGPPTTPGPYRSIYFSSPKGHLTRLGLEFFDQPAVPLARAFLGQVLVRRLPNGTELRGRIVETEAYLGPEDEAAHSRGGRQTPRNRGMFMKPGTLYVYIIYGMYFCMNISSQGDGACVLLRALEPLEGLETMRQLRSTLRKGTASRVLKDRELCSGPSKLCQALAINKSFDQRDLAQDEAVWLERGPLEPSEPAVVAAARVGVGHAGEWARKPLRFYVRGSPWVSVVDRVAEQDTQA
G/T mismatch-specific thymine DNA glycosylase (Homo sapiens), sequence (Q13569 whole entry): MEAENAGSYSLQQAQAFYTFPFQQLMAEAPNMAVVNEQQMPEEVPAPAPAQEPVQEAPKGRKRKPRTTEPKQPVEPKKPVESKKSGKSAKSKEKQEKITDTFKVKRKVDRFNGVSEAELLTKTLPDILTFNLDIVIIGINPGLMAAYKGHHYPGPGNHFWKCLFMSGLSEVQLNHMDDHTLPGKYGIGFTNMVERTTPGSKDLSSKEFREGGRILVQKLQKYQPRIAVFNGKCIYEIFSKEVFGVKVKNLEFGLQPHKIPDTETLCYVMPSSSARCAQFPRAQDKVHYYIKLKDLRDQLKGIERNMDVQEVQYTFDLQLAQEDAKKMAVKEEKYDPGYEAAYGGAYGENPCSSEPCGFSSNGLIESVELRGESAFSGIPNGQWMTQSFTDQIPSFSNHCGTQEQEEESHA
Endonuclease 8-like 1 (Homo sapiens), sequence (Q96FI4 whole entry): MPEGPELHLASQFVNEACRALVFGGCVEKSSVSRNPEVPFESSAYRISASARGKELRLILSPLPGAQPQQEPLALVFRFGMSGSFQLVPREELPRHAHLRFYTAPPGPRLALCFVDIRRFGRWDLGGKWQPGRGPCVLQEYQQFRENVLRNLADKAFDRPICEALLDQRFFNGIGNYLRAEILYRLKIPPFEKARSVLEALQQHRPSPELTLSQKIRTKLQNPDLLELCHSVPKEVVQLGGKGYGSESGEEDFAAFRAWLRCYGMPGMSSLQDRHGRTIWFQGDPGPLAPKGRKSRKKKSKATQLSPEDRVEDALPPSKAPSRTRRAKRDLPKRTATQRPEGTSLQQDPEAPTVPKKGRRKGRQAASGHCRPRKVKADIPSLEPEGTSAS
Methyl-CpG-binding domain protein 4 (Homo sapiens), sequence (O95243 whole entry, the tested form may be a part): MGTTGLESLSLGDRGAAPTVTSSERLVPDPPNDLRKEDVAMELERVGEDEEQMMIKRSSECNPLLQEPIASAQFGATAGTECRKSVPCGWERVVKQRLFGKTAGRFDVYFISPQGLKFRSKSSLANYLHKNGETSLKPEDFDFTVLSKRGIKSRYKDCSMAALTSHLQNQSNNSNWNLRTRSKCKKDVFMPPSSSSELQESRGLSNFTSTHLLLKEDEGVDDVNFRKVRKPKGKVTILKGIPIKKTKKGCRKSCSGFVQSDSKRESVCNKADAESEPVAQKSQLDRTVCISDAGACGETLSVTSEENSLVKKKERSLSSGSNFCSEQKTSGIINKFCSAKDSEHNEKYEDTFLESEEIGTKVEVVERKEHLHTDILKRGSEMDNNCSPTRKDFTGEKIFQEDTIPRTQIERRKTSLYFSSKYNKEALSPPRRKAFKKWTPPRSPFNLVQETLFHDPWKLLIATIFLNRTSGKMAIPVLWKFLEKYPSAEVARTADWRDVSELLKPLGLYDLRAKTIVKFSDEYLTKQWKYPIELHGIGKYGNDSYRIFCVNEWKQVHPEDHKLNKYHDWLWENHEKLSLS
Uracil-DNA glycosylase (Homo sapiens), sequence (P13051 whole entry, the tested form may be a part): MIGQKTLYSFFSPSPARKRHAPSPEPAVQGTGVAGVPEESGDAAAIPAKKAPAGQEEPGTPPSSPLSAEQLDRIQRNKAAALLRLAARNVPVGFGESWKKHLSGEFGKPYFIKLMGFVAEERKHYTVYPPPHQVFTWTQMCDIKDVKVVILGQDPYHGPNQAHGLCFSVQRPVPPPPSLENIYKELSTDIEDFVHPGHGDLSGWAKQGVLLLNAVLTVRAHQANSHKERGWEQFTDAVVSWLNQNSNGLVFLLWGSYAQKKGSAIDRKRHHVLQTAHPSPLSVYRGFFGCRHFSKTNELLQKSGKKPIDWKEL

Structure (SMILES) | inhibition [1] | inhibition [2] | inhibition [3] | inhibition [4] | inhibition [5] | inhibition [6] | inhibition [7] | inhibition [8] | inhibition [9]
COc1ccccc1-n1nc(C2CC(C)(C)OC(C)(C)C2)cc1-c1ccc(Cl)cc1 | -6.29% | -7.01% | 11.3% | -4.68% | 12.1% | -3.03% | -1.99% | – | –
CCN(CC)S(=O)(=O)Nc1cccc(-c2ccc3c(NC(=O)C4CC4)n[nH]c3c2)c1 | 45.5% | 3.86% | 9.38% | 5.35% | 9.15% | 2.23% | -2.59% | 11.9% | -4.92%
CN1CCC(=C2c3ccccc3CC(=O)c3sccc32)CC1 | 2.08% | -7.46% | 8.25% | 2.26% | -2.47% | – | -9.08% | -4.83% | -5.18%
CCOC(=O)C1=C[C@]2(CC)CCCN3CCc4c(n1c1ccccc41)[C@@H]32 | -4.28% | -4.56% | 2.53% | 6.02% | 18.7% | -5.08% | -4.24% | 1% | -8.62%
Cc1nc(C(=O)N2CCC[C@H]2Cc2nnc(-c3ccccc3)o2)c(-c2ccccc2F)s1 | 15% | -2.02% | 2.46% | -1.23% | 4.86% | -9.58% | -9.49% | -4.93% | -0.535%
CCN(CC)CCCCC1CCN(CC(=O)N2c3ccccc3C(=O)Nc3cccnc32)CC1 | 10.1% | -8.23% | -7.47% | 12.7% | 12.2% | – | -4.84% | 1.37% | -2.09%
Cc1cc(-c2nncc3c(C(C)(C)C)c(OCc4ncnn4C)nn23)no1 | -4.49% | -9.01% | -1.32% | -4.17% | 1.39% | -3.18% | -4.07% | -0.184% | –
CN1C[C@@H](NS(=O)(=O)N(C)C)C[C@@H]2c3cccc4c3c(cn4C)C[C@H]21 | 7.57% | 11.2% | 13.1% | -0.605% | -8.51% | -6.05% | 12.1% | 2.87% | -5.21%
CCOC(=O)c1ncn2c1CN(C)C(=O)c1cc(F)ccc1-2 | 9.02% | -3.91% | 0.389% | -1.48% | -6.87% | -9.3% | -4.21% | -0.518% | 0.398%
NC(CCP(=O)(O)O)C(=O)O (racemic) | 24.4% | -3.6% | 0.0927% | -9.22% | 2.66% | -6.54% | 6.95% | 10.5% | -1.26%
O=C(N[C@H]1CN2CCC1CC2)c1ccc(Cl)cc1 | 21.4% | -7.18% | 1.79% | 3.98% | 15.4% | -1.13% | 12.6% | 3.71% | –
CN(C)C(=O)N[C@H]1CC[C@H](CCN2CCN(c3cccc(Cl)c3Cl)CC2)CC1 | 14.4% | -7.07% | -4.8% | 10.2% | 2.66% | -3.02% | -1.19% | 1.03% | 1.62%
CCCN1CCO[C@H]2c3cc(O)ccc3OC[C@@H]21 | -3.98% | 3.27% | 8.1% | -7.97% | 7.05% | – | -3.57% | – | -4.1%
COC1CCN(c2cccc(-c3cc(NC(C)=O)nc(-n4nc(C)cc4C)n3)n2)CC1 | -3.39% | 6.5% | – | 2.26% | 12.2% | – | -4.26% | – | -4.31%
O=C(NCc1cccnc1OCC(F)(F)F)c1cncc(-c2ccc(Cl)cc2)c1 | 3.98% | 2% | -4.73% | -0.35% | 0.568% | -5.85% | -9.96% | -3.23% | –
Cc1c(C(=O)NC2CCCCC2)sc2nc3ccc(N)cc3n12 | 11.8% | -4.14% | -4.65% | 1.76% | 7.79% | – | 7.24% | 8.2% | -4.66%
C[C@H](N)Cn1ccc2cc(F)c(Cl)cc21 | -0.256% | -5.64% | – | – | 6.35% | -6.21% | 4.93% | – | –
Cc1cc(NC(=O)Nc2ccccc2)n(-c2ccccc2)n1 | 5.78% | 3.86% | 1.64% | 7.29% | 10.5% | 1.74% | 0.993% | 0.777% | –
CCOc1ccc(S(=O)(=O)Nc2ccc(Cl)cc2C#Cc2cnc(C(=O)O)cc2OC)c2ncccc12 | 51.4% | 14.2% | 7.43% | – | -3.26% | 7.85% | 60.3% | 5.88% | 7.9%
CNc1nc(NCc2ccc(NS(C)(=O)=O)cc2Cl)cc(-c2ccccn2)n1 | 18.1% | -5.26% | 3.5% | 7.25% | -9.07% | -9.82% | – | 11.2% | 15%
c1nc(CC2CCNCC2)c[nH]1 | 10.2% | -7.11% | 7.21% | -0.983% | 7.05% | – | -3.22% | – | -4.12%
O=C1NCCc2c(OCCCCN3CCCCC3)cccc21 | -4.06% | -7.35% | 5.05% | 3.98% | 23.7% | -4.57% | 2.31% | – | -7.4%
CC1(C)CC(CN2CCC(F)(CNC(=O)c3cc(Cl)cc(Cl)c3)CC2)CCO1 (stereo unspecified) | 12.8% | 9.94% | 6.23% | 6.78% | -3.56% | -1.24% | 12.4% | 8.24% | –
COc1ccc(-n2nc3c4ccccc4[nH]cc-3c2=O)cc1 | -5.16% | -3.24% | 0.00926% | – | -6.86% | -4.77% | 1.12% | -6.96% | -8.16%
COc1ccc(CCN(C)CCCC(C#N)(c2cc(OC)c(OC)c(OC)c2)C(C)C)cc1OC (stereo unspecified) | -7.93% | -3.7% | 5.05% | 2.71% | 3.04% | -3.3% | – | -0.579% | -7.76%
CC[C@@H](C[C@H]1COC(N)=N1)c1ccccc1 | 11.1% | -5.21% | 8.31% | -1.88% | 17.9% | -3.91% | 4.05% | – | –
